{"source": "patent US6350251B1", "about": "“Biocidal locks” (Biolink Corporation, priority 2000, dated 2002)", "key": {"S. epidermis": {"system": "S. epidermis", "conditions": "cited from earlier work"}, "E. coli [1]": {"system": "E. coli", "conditions": "urine isolate of E. coli to human uroepithelial cells; concentration dependent; cited from earlier work"}, "Candida albicans [2]": {"system": "Candida albicans", "conditions": "oral isolate of Candida albicans to human buccal epithelial cells; concentration dependent; cited from earlier work"}, "B. fragilis": {"system": "B. fragilis", "conditions": "mice, intravenous 0.2 mL of a 20% solution in sterile 5% polyvinyl pyrrolidone; intraperitoneal B. fragilis; cited from earlier work"}, "[3]": {"system": "Vancomycin-Internediate Susceptibility Staphylococcus A ureus (VISA) and Methicillin-Resistant Staphylococcus Aureus (MRSA)", "conditions": "range of from pH 7.0 to pH 5.0; cited from earlier work"}, "Candida albicans [4]": {"system": "Candida albicans", "assay": "Inoculated DIALOCK port/catheter filled with lock solution, flush cultured on blood agar (Example 7)", "format": "cell-based", "design": "key to organisms remaining, DIALOCK port flush: TNTC: Too numerous to count", "conditions": "inoculum 5 cfu/0.1 mL; 2% citrated taurolidine or 5000 U/mL heparin (with preservative); 37° C. for 72 hours", "procedure": "(§1) Clinical blood isolates of coagulase negative staphylococcus, Candida albicans, Staphylococcus aureus, Enterococcus, and Pseudomonas aeruginosa were inoculated into trypticase soy broth and allowed to incubate at 37° C. until the cultures were visibly turbid. Serial dilutions were made to obtain a final cell density of 10 colony forming units (cfu)/0.1 mL for S. aureus, Enterococcus, and Pseudomonas aeruginosa; 5 cfu/0.1 mL for Candida; 100 cfu/0.1 mL for coagulase negative staph. and Enterobacter. From the final dilution, 0.1 mL was instilled into each distal end of a DIALOCK port tube, and the DIALOCK port was incubated at room temperature overnight. After incubation, a regular silicon catheter was placed on the distal end of both sides of each DIALOCK port. A solution of 5000 U/mL of heparin (with preservative) or 2% citrated taurolidine was instilled through the proximal end of the DIALOCK port to fill the DIALOCK port and catheter. The catheter was clamped and the DIALOCK port/catheter was incubated at 37° C. for 72 hours. Following this incubation, both catheters were removed from each DIALOCK port and each was flushed with 0.1 mL of nutrient broth."}, "[5]": {"system": "coagulase negative staphylococcus", "assay": "Inoculated DIALOCK port/catheter filled with lock solution, flush cultured on blood agar (Example 7)", "format": "cell-based", "design": "key to organisms remaining, DIALOCK port flush: TNTC: Too numerous to count", "conditions": "inoculum 100 cfu/0.1 mL; 2% citrated taurolidine or 5000 U/mL heparin (with preservative); 37° C. for 72 hours", "procedure": "as §1"}, "Pseudomonas aeruginosa": {"system": "Pseudomonas aeruginosa", "assay": "Inoculated DIALOCK port/catheter filled with lock solution, flush cultured on blood agar (Example 7)", "format": "cell-based", "design": "key: TNTC: Too numerous to count", "conditions": "inoculum 10 cfu/0.1 mL; 2% citrated taurolidine or 5000 U/mL heparin (with preservative); 37° C. for 72 hours", "procedure": "as §1"}, "Staphylococcus aureus": {"system": "Staphylococcus aureus", "assay": "Inoculated DIALOCK port/catheter filled with lock solution, flush cultured on blood agar (Example 7)", "format": "cell-based", "design": "key: TNTC: Too numerous to count", "conditions": "inoculum 10 cfu/0.1 mL; 2% citrated taurolidine or 5000 U/mL heparin (with preservative); 37° C. for 72 hours", "procedure": "as §1"}, "Enterobacter": {"system": "Enterobacter", "assay": "Inoculated DIALOCK port/catheter filled with lock solution, flush cultured on blood agar (Example 7)", "format": "cell-based", "design": "key: TNTC: Too numerous to count", "conditions": "inoculum 100 cfu/0.1 mL; 2% citrated taurolidine or 5000 U/mL heparin (with preservative); 37° C. for 72 hours", "procedure": "as §1"}, "Enterococcus": {"system": "Enterococcus", "assay": "Inoculated DIALOCK port/catheter filled with lock solution, flush cultured on blood agar (Example 7)", "format": "cell-based", "design": "key: TNTC: Too numerous to count", "conditions": "inoculum 10 cfu/0.1 mL; 2% citrated taurolidine or 5000 U/mL heparin (with preservative); 37° C. for 72 hours", "procedure": "as §1"}, "blood": {"system": "blood", "assay": "Clotting of pig blood in containers holding taurolidine solution with or without ACD-A (Example 1)", "conditions": "pig blood filled up to 30 mL over 5, 10 or 15 mL 0.5% taurolidine in Ringer-lactate, or 5 mL taurolidine solution plus 2 mL ACD-A; inspected after 30 minutes", "procedure": "A 0.5% solution of taurolidine in Ringer-lactate solution (Thomae, Biberach, Germany) was introduced into each of four polyethylene bottles having a 30 mL volume. Filling volumes were 5, 10, and 15 mL. One bottle was filled with 5 mL of the taurolidine solution and 2 mL ACD-A (Fresenius, Bad Homburg, Germany) solution. ACD-A solution is used for the conservation of whole blood and contains per liter: 22.0 grams of sodium citrate dihydrate, 7.3 grams of citric acid and 34.5 grams of glucose monohydrate.\nBlood was collected at a slaughter house from a female pig directly from the slaughter wound into the containers that were then filled up to the 30 mL level. The containers were capped and gently moved to mix blood with the solution. The containers were inspected after 30 minutes. Blood in the containers containing only taurolidine was clotted, but the blood in the container containing the mixture of taurolidine and ACD-A was not clotted."}, "[6]": {"conditions": "clinical, bacteriologic outcomes, endotoxemia, organ failure, 28-day mortality rate as end points; cited from earlier work"}, "E. coli [7]": {"system": "E. coli", "conditions": "mice, intravenous 0.2 mL of a 20% solution in sterile 5% polyvinyl pyrrolidone; intraperitoneal E. coli; cited from earlier work"}}}
{"compound": "CN[C@H](CC(C)C)C(=O)N[C@H]1C(=O)N[C@@H](CC(N)=O)C(=O)N[C@H]2C(=O)N[C@H]3C(=O)N[C@H](C(=O)N[C@H](C(=O)O)c4cc(O)cc(O)c4-c4cc3ccc4O)[C@H](O)c3ccc(c(Cl)c3)Oc3cc2cc(c3O[C@@H]2O[C@H](CO)[C@@H](O)[C@H](O)[C@H]2O[C@H]2C[C@](C)(N)[C@H](O)[C@H](C)O2)Oc2ccc(cc2Cl)[C@H]1O", "note": "[Vancomycin]", "values": [{"measurement": "dose found to be bactericidal", "setting": "S. epidermis; initial inocula of 10^3 CFU/mL", "value": 6.7, "unit": "µg/mL"}]}
{"compound": "[H]/N=C(\\N/C(=N/[H])NCCCCCCNC(=N)NC(=N)Nc1ccc(Cl)cc1)Nc1ccc(Cl)cc1", "note": "[chlorhexidine]", "values": [{"measurement": "microbial anti-adherence activity", "setting": "E. coli [1]", "value": "significant anti-adherence activity"}, {"measurement": "microbial anti-adherence activity", "setting": "Candida albicans [2]", "value": "significant anti-adherence activity"}]}
{"compound": "O=C([O-])CN(CCN(CC(=O)[O-])CC(=O)O)CC(=O)O.[Na+].[Na+]", "note": "[disodium EDTA]", "values": [{"measurement": "concentration shown to be bactericidal", "setting": "S. epidermis; initial inoculum of 10^3 CFU of staphylococci per mL, in 24 hours", "value": 20, "unit": "mg/mL"}]}
{"compound": "O=S1(=O)CCN(CN2CCS(=O)(=O)NC2)CN1", "note": "[taurolidine, bis-(1,1-dioxo-perhydroxy-1,2,4-thiadiazin-4-yl)methane]", "values": [{"measurement": "microbial anti-adherence activity", "setting": "E. coli [1]", "value": "significant anti-adherence activity"}, {"measurement": "mortality rate", "setting": "B. fragilis", "value": "very significantly reduce the mortality rate"}, {"measurement": "microbial anti-adherence activity", "setting": "Candida albicans [2]", "value": "significant anti-adherence activity"}, {"measurement": "taurolidine activity versus pH", "setting": "[3]", "value": "increases with decreasing pH"}, {"measurement": "organisms remaining, Catheter flush", "setting": "Candida albicans [4]", "value": "No growth*"}, {"measurement": "organisms remaining, DIALOCK port flush", "setting": "Candida albicans [4]", "value": "No growth"}, {"measurement": "organisms remaining, Catheter flush", "setting": "[5]", "value": "No growth"}, {"measurement": "organisms remaining, DIALOCK port flush", "setting": "[5]", "value": "No growth"}, {"measurement": "organisms remaining, Catheter flush", "setting": "Pseudomonas aeruginosa", "value": "No growth**"}, {"measurement": "organisms remaining, DIALOCK port flush", "setting": "Pseudomonas aeruginosa", "value": "No growth"}, {"measurement": "organisms remaining, Catheter flush", "setting": "Staphylococcus aureus", "value": "No growth"}, {"measurement": "organisms remaining, DIALOCK port flush", "setting": "Staphylococcus aureus", "value": "No growth"}, {"measurement": "organisms remaining, Catheter flush", "setting": "Enterobacter", "value": "No growth"}, {"measurement": "organisms remaining, DIALOCK port flush", "setting": "Enterobacter", "value": "No growth"}, {"measurement": "organisms remaining, Catheter flush", "setting": "Enterococcus", "value": "No growth"}, {"measurement": "organisms remaining, DIALOCK port flush", "setting": "Enterococcus", "value": "No growth"}, {"measurement": "state of blood in the containers", "setting": "blood", "value": "clotted"}, {"measurement": "therapeutic effect on the outcome of patients with sepsis syndrome", "setting": "[6]", "value": "no beneficial therapeutic effect"}, {"measurement": "mortality rate", "setting": "E. coli [7]", "value": "very significantly reduce the mortality rate"}]}
{"compound": "Heparin", "values": [{"measurement": "organisms remaining, Catheter flush", "setting": "Candida albicans [4]", "value": 20, "unit": "cfu"}, {"measurement": "organisms remaining, DIALOCK port flush", "setting": "Candida albicans [4]", "value": "TNTC"}, {"measurement": "organisms remaining, Catheter flush", "setting": "[5]", "value": "No growth"}, {"measurement": "organisms remaining, DIALOCK port flush", "setting": "[5]", "value": "TNTC"}, {"measurement": "organisms remaining, Catheter flush", "setting": "Pseudomonas aeruginosa", "value": "TNTC"}, {"measurement": "organisms remaining, DIALOCK port flush", "setting": "Pseudomonas aeruginosa", "value": "TNTC"}, {"measurement": "organisms remaining, Catheter flush", "setting": "Staphylococcus aureus", "value": "TNTC"}, {"measurement": "organisms remaining, DIALOCK port flush", "setting": "Staphylococcus aureus", "value": "TNTC"}, {"measurement": "organisms remaining, Catheter flush", "setting": "Enterobacter", "value": "TNTC"}, {"measurement": "organisms remaining, DIALOCK port flush", "setting": "Enterobacter", "value": "TNTC"}, {"measurement": "organisms remaining, Catheter flush", "setting": "Enterococcus", "value": "TNTC"}, {"measurement": "organisms remaining, DIALOCK port flush", "setting": "Enterococcus", "value": "TNTC"}, {"measurement": "inhibition of growth of S. epidermis", "setting": "S. epidermis; isolate from the catheter of an infected patient", "value": "does not inhibit the growth"}]}
{"compound": "povidone-iodine", "values": [{"measurement": "microbial anti-adherence activity", "setting": "E. coli [1]", "value": "significant anti-adherence activity"}, {"measurement": "microbial anti-adherence activity", "setting": "Candida albicans [2]", "value": "significant anti-adherence activity"}]}
